Measurements published in ChEMBL document CHEMBL1133412, “Rational design, synthesis and structure-activity relationships of antitumor (E)-2-benzylidene-1-tetralones and (E)-2-benzylidene-1-indanones” (Bioorg Med Chem Lett, 2000).
Activity calls are given as the source filed them. No cut-off for these calls is given here.

Key:
Format in all cases: functional, cell-based
A549 [1] = assay: Cytotoxicity was evaluated against A549 tumor cell lines; Inactive; conditions: Homo sapiens
B16 [2] = assay: Cytotoxicity was evaluated against B16 tumor cell lines; Inactive; conditions: Mus musculus
CCRF-CEM [3] = assay: Cytotoxicity was evaluated against CEM tumor cell lines; Inactive; conditions: Homo sapiens
NCI-H596 [4] = assay: Cytotoxicity was evaluated against H596 tumor cell lines; Inactive; conditions: Homo sapiens
NCI-H292 [5] = assay: Cytotoxicity was evaluated against H292 tumor cell lines; Inactive; conditions: Homo sapiens
HL-60 [6] = assay: Cytotoxicity was evaluated against HL-60 tumor cell lines; Inactive; conditions: Homo sapiens
Jurkat = assay: In vitro test for antitumor activity against human Jurkat cell line using a formazan dye (MTT) conversion assay.
K562 [7] = assay: Cytotoxicity was evaluated against K562 tumor cell lines; Inactive; conditions: Homo sapiens
L1210 [8] = assay: Cytotoxicity was evaluated against L1210 tumor cell lines; Inactive; conditions: Mus musculus
MCF7 [9] = assay: Cytotoxicity was evaluated against MCF-7 tumor cell lines; Inactive; conditions: Homo sapiens
MOLT-4 [10] = assay: Cytotoxicity was evaluated against Molt-4 tumor cell lines; Inactive; conditions: Homo sapiens
NIH3T3 [11] = assay: Cytotoxicity was evaluated against NIH3T3 tumor cell lines; Inactive; conditions: Mus musculus
WI-38 [12] = assay: Cytotoxicity was evaluated against WI38 tumor cell lines; Inactive; conditions: Homo sapiens
WIL2 [13] = assay: Cytotoxicity was evaluated against WIL2 tumor cell lines; Inactive; conditions: Homo sapiens
A549 [14] = assay: Cytotoxicity evaluated against A549 tumor cell lines; significant activity; conditions: Homo sapiens
B16 [15] = assay: Cytotoxicity was evaluated against B16 tumor cell lines; Significant activity; conditions: Mus musculus
CCRF-CEM [16] = assay: Cytotoxicity evaluated against CEM tumor cell lines; Significant activity; conditions: Homo sapiens
NCI-H596 [17] = assay: Cytotoxicity evaluated against H596 tumor cell lines; Significant activity; conditions: Homo sapiens
NCI-H292 [18] = assay: Cytotoxicity evaluated against H292 tumor cell lines; Significant activity; conditions: Homo sapiens
HL-60 [19] = assay: Cytotoxicity evaluated against HL-60 tumor cell lines; Significant activity; conditions: Homo sapiens
K562 [20] = assay: Cytotoxicity evaluated against K562 tumor cell lines; Significant activity; conditions: Homo sapiens
L1210 [21] = assay: Cytotoxicity evaluated against L1210 tumor cell lines; Significant activity; conditions: Mus musculus
MCF7 [22] = assay: Cytotoxicity evaluated against MCF-7 tumor cell lines; Significant activity; conditions: Homo sapiens
MOLT-4 [23] = assay: Cytotoxicity was evaluated against Molt-4 tumor cell lines; conditions: Homo sapiens
NIH3T3 [24] = assay: Cytotoxicity evaluated against NIH3T3 tumor cell lines; Significant activity; conditions: Mus musculus
WI-38 [25] = assay: Cytotoxicity evaluated against WI38 tumor cell lines; Significant activity; conditions: Homo sapiens
WIL2 [26] = assay: Cytotoxicity evaluated against WIL2 tumor cell lines; Significant activity; conditions: Homo sapiens

IC50 (Jurkat) | Structure (SMILES) | Cytotoxicity (A549 [14]) | Cytotoxicity (B16 [15]) | Cytotoxicity (CCRF-CEM [16]) | Cytotoxicity (NCI-H596 [17]) | Cytotoxicity (NCI-H292 [18]) | Cytotoxicity (HL-60 [19]) | Cytotoxicity (K562 [20]) | Cytotoxicity (L1210 [21]) | Cytotoxicity (MCF7 [22]) | Cytotoxicity (MOLT-4 [23]) | Cytotoxicity (NIH3T3 [24]) | Cytotoxicity (WI-38 [25]) | Cytotoxicity (WIL2 [26]) | further results
> 50 µM | COc1cc2c(cc1OC)C(=O)/C(=C/c1cccc(OC)c1OC)CC2 |  |  |  |  |  |  |  |  |  |  |  |  |  | Cytotoxicity (A549 [1]): inactive; Cytotoxicity (B16 [2]): inactive; Cytotoxicity (CCRF-CEM [3]): inactive; Cytotoxicity (NCI-H596 [4]): inactive; Cytotoxicity (NCI-H292 [5]): inactive; Cytotoxicity (HL-60 [6]): inactive; Cytotoxicity (K562 [7]): inactive; Cytotoxicity (L1210 [8]): inactive; Cytotoxicity (MCF7 [9]): inactive; Cytotoxicity (MOLT-4 [10]): inactive; Cytotoxicity (NIH3T3 [11]): inactive; Cytotoxicity (WI-38 [12]): inactive; Cytotoxicity (WIL2 [13]): inactive
> 50 µM | COc1cc2c(cc1OC)C(=O)/C(=C/c1c(OC)cccc1OC)CC2 |  |  |  |  |  |  |  |  |  |  |  |  |  | Cytotoxicity (A549 [1]): inactive; Cytotoxicity (B16 [2]): inactive; Cytotoxicity (CCRF-CEM [3]): inactive; Cytotoxicity (NCI-H596 [4]): inactive; Cytotoxicity (NCI-H292 [5]): inactive; Cytotoxicity (HL-60 [6]): inactive; Cytotoxicity (K562 [7]): inactive; Cytotoxicity (L1210 [8]): inactive; Cytotoxicity (MCF7 [9]): inactive; Cytotoxicity (MOLT-4 [10]): inactive; Cytotoxicity (NIH3T3 [11]): inactive; Cytotoxicity (WI-38 [12]): inactive; Cytotoxicity (WIL2 [13]): inactive
6 µM | COc1cc2c(cc1OC)C(=O)/C(=C/c1cc(C)ccc1C)CC2 | Significant activity | Significant activity | Significant activity | Significant activity | Significant activity | Significant activity | Significant activity | Significant activity | Significant activity | Significant activity | Significant activity | Significant activity | Significant activity | 
14.5 µM | COc1cc2c(cc1OC)C(=O)/C(=C/c1cc([N+](=O)[O-])ccc1O)C2 | Significant activity | Significant activity | Significant activity | Significant activity | Significant activity | Significant activity | Significant activity | Significant activity | Significant activity | Significant activity | Significant activity | Significant activity | Significant activity | 
12.8 µM | COc1cccc(/C=C2\Cc3cc(OC)c(OC)cc3C2=O)c1 | Significant activity | Significant activity | Significant activity | Significant activity | Significant activity | Significant activity | Significant activity | Significant activity | Significant activity | Significant activity | Significant activity | Significant activity | Significant activity | 
0.4 µM | COc1cc2c(cc1OC)C(=O)/C(=C/c1cc(C)c(OC(C)=O)c(C)c1)C2 | Significant activity | Significant activity | Significant activity | Significant activity | Significant activity | Significant activity | Significant activity | Significant activity | Significant activity | Significant activity | Significant activity | Significant activity | Significant activity | 
0.0235 µM | COc1cc2c(c(N)c1OC)C(=O)/C(=C/c1cc(C)c(N)c(C)c1)C2 | Significant activity | Significant activity | Significant activity | Significant activity | Significant activity | Significant activity | Significant activity | Significant activity | Significant activity | Significant activity | Significant activity | Significant activity | Significant activity | 
7 µM | COc1cc2c(cc1OC)C(=O)/C(=C/c1cc(Cl)cc(Cl)c1)CC2 | Significant activity | Significant activity | Significant activity | Significant activity | Significant activity | Significant activity | Significant activity | Significant activity | Significant activity | Significant activity | Significant activity | Significant activity | Significant activity | 
2 µM | COc1cc2c(cc1OC)C(=O)/C(=C/c1cc([N+](=O)[O-])cc([N+](=O)[O-])c1)CC2 | Significant activity | Significant activity | Significant activity | Significant activity | Significant activity | Significant activity | Significant activity | Significant activity | Significant activity | Significant activity | Significant activity | Significant activity | Significant activity | 
11 µM | COc1ccc(OC)c(/C=C2\CCc3cc(OC)c(OC)cc3C2=O)c1 | Significant activity | Significant activity | Significant activity | Significant activity | Significant activity | Significant activity | Significant activity | Significant activity | Significant activity | Significant activity | Significant activity | Significant activity | Significant activity | 
5 µM | COc1cc(/C=C2\CCc3cc(OC)c(OC)cc3C2=O)cc(OC)c1 | Significant activity | Significant activity | Significant activity | Significant activity | Significant activity | Significant activity | Significant activity | Significant activity | Significant activity | Significant activity | Significant activity | Significant activity | Significant activity | 
19 µM | COc1cc2c(cc1OC)C(=O)/C(=C/c1ccc(O)cc1)CC2 | Significant activity | Significant activity | Significant activity | Significant activity | Significant activity | Significant activity | Significant activity | Significant activity | Significant activity | Significant activity | Significant activity | Significant activity | Significant activity | 
2.2 µM | CCOC(=O)COc1c(C)cc(/C=C2\Cc3cc(OC)c(OC)cc3C2=O)cc1C | Significant activity | Significant activity | Significant activity | Significant activity | Significant activity | Significant activity | Significant activity | Significant activity | Significant activity | Significant activity | Significant activity | Significant activity | Significant activity | 
> 50 µM | COc1cc2c(cc1OC)C(=O)/C(=C/c1cc(OC)c(OC)c(OC)c1)CC2 | Significant activity | Significant activity | Significant activity | Significant activity | Significant activity | Significant activity | Significant activity | Significant activity | Significant activity | Significant activity | Significant activity | Significant activity | Significant activity | 
